Test results from patent US8604042B2, “Bi-aryl meta-pyrimidine inhibitors of kinases” (TargeGen, Inc., priority 2005, dated 2013).
Structures can show the parent of a compound that is named as a salt.

Each compound was assayed against T1, recombinant JAK2 (Homo sapiens, UniProt O60674) (assay: IC50 value determinations for Jak2 kinase, luminescence-based kinase assay (Kinase-Glo)). Details: Table 1.
T1 construct: purchased Upstate Cell Signaling Solutions
T1 sequence (O60674 808-1132 limits assumed): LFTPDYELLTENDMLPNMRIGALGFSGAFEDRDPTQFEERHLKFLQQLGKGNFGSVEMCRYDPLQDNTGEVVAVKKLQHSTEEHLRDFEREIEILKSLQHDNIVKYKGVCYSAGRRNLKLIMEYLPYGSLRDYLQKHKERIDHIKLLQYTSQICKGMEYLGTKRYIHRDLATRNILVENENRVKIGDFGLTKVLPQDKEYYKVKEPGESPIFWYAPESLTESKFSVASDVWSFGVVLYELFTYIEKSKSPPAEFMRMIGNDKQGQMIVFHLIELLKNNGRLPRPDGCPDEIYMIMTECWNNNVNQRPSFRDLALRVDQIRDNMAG
Assay type: biochemical
Method: The IC50 values for compounds were determined using a luminescence-based kinase assay with recombinant JAK2 obtained from Upstate Cell Signaling Solutions. In white, flat bottom, 96-well plates (Nunc) parallel assays were run at room temperature at a final volume of 50 μL.
Two control reactions were also ran: one reaction containing no compound and the second containing neither inhibitor nor peptide substrate. IC50 values were derived from experimental data using the non-linear curve fitting capabilities of Prism (Version 4; GraphPad Software).
Work on `Cc1cnc(Nc2ccc(N3CCN(C)CC3)cc2)nc1Nc1cccc(NC(=O)Nc2ccccc2)c1` [1-(3-{5-Methyl-2-[4-(4-methyl-piperazin-1-yl)-phenylamino]-pyrimidin-4-ylamino}-phenyl)-3-phenyl-urea] yielded an IC50 of 63.6 nM.
`Cc1cnc(Nc2ccc(C(C)N3CCOCC3)cc2)nc1Nc1cccc(S(=O)(=O)NC(C)(C)C)c1` (stereo not drawn) [N-tert-Butyl-3-{5-methyl-2-[4-(1-morpholin-4-yl-ethyl)-phenylamino]-pyrimidin-4-ylamino}-benzenesulfonamide] was tested, and the IC50 was 29.7 nM.
`Cc1cnc(Nc2ccc(OCCO)nc2)nc1Nc1cccc2c1OCO2` [2-{5-[4-(Benzo[1,3]dioxol-4-ylamino)-5-methyl-pyrimidin-2-ylamino]-pyridin-2-yloxy}-ethanol] was tested, and the IC50 was 116 nM.
In the case of `Cc1cnc(Nc2ccc(N3CCN(C)CC3)cc2)nc1Nc1cccc(S(=O)(=O)NC2CCCC2)c1` [N-Cyclopentyl3-{5-Methyl-2-[4-(4-methyl-piperazin-1-yl)-phenylamino]-pyrimidine-4-ylamino}-benzenesulfonamide Hydrochloride], the IC50 is reported as 19.8 nM.
In the case of `Cc1cnc(Nc2cccc(S(=O)(=O)N3CCN(C)CC3)c2)nc1Nc1cccc(S(=O)(=O)NC(C)(C)C)c1` [N-tert-butyl-3-{[5-methyl-2-({3-[(4-methylpiperazin-1-yl)sulfonyl]phenyl}amino)pyrimidin-4-yl]amino}benzenesulfonamide], the IC50 is reported as 650 nM.
`Cc1cnc(Nc2ccc(N3CCN(C)CC3)cc2)nc1Nc1cccc(S(=O)(=O)N2C(C)CCC2C)c1` (stereo not drawn) [N4-[3-(2,5-Dimethyl-pyrrolidine-1-sulfonyl)-phenyl]-5-methyl-N2-[4-(4-methyl-piperazin-1-yl)-phenyl]-pyrimidine-2,4-diamine Hydrochloride] showed an IC50 of 18.8 nM.
Compound `Cc1cnc(Nc2ccc(N3CCN(C)CC3)cc2)nc1Nc1cccc(C(=O)NC(C)C)c1` [N-Isopropyl-3-{5-methyl-2-[4-(4-methyl-piperazin-1-yl)-phenylamino]-pyrimidin-4-ylamino}-benzamide] has an IC50 of 541 nM.
Work on `Cc1cnc(Nc2ccc(N3CCN(C)CC3)cc2)nc1Nc1cccc(S(=O)(=O)N2CCOCC2)c1` [5-Methyl-N2-[4-(4-methyl-piperazin-1-yl)-phenyl]-N4-[3-(morpholine-4-sulfonyl)-phenyl]-pyrimidine-2,4-diamine] yielded an IC50 of 20.7 nM.
In the case of `Cc1cnc(Nc2ccc(-n3ccnc3)cc2)nc1Nc1cccc(S(=O)(=O)NC(C)(C)C)c1` [N-tert-Butyl-3-[2-(4-imidazol-1-yl-phenylamino)-5-methyl-pyrimidin-4-ylamino]-benzenesulfonamide], the IC50 is reported as 12.3 nM.
`Cc1cnc(Nc2nc(Nc3ccc(OCCN4CCCC4)cc3)ncc2C)nc1Nc1cccc(C(C)(C)C)c1` [N2-(4-(2-(pyrrolidin-1-yl)ethoxy)phenyl)-N4-(4-(3-tert-butylphenylamino)-5-methylpyrimidin-2-yl)-5-methylpyrimidine-2,4-diamine Hydrochloride] showed an IC50 of 153 nM.
With `Cc1cnc(Nc2ccc(OCCO)cc2)nc1Nc1cccc(S(=O)(=O)NC(C)(C)C)c1` [N-tert-Butyl-3-{2-[4-(2-hydroxy-ethoxy)-phenylamino]-5-methyl-pyrimidin-4-ylamino)-benzenesulfonamide] the IC50 was 20.3 nM.
`O=S(=O)(NCCN1CCCC1)c1ccc(Nc2nccc(Nc3cccc(O)c3)n2)cc1` [4-[4-(3-Hydroxy-phenylamino)-pyrimidin-2-ylamino]-N-(2-pyrrolidin-1-yl-ethyl)-benzenesulfonamide trifluoroacetate] gave an IC50 of 3620 nM.
For `Cc1cnc(Nc2ccc(OCCN3CCCC3)cc2)nc1Nc1ccc(Cl)cc1` [N4-(4-Chloro-phenyl)-5-methyl-N2-[4-(2-pyrrolidin-1-yl-ethoxy)-phenyl]-pyrimidine-2,4-diamine trifluoroacetate], the IC50 was 18.2 nM.
Compound `Cc1cnc(Nc2ccc(-n3cccn3)cc2)nc1Nc1cccc(S(=O)(=O)NC(C)(C)C)c1` [N-tert-Butyl-3-[5-methyl-2-(4-pyrazol-1-yl-phenylamino)-pyrimidin-4-ylamino]-benzenesulfonamide] has an IC50 of 19 nM.
With `O=S(=O)(NCCN1CCCC1)c1ccc(Nc2nccc(Nc3ccc(O)cc3)n2)cc1` [4-[4-(4-Hydroxy-phenylamino)-pyrimidin-2-ylamino]-N-(2-pyrrolidin-1-yl-ethyl)-benzenesulfonamide] the IC50 was 9740 nM.
Work on `Cc1cnc(Nc2ccc(C(=O)N3CCNCC3)cc2)nc1Nc1cccc(S(=O)(=O)NC(C)(C)C)c1` [N-tert-Butyl-3-{5-methyl-2-[4-(piperazine-1-carbonyl)-phenylamino]-pyrimidin-4-ylamino}-benzenesulfonamide] yielded an IC50 of 69 nM.
Work on `COc1cc(Nc2nc(Nc3cccc(OCCN4CCCC4)c3)ncc2C#N)c(Cl)cc1Cl` [drawing 299, 4-(2,4-Dichloro-5-methoxy-phenylamino)-2-[3-(2-pyrrolidin-1-yl-ethoxy)-phenylamino]-pyrimidine-5-carbonitrile] yielded an IC50 of 10500 nM.
For `Cc1cnc(Nc2ccc(N3CCNCC3)c(C(F)(F)F)c2)nc1Nc1cccc(S(=O)(=O)NC(C)(C)C)c1` [N-tert-butyl-3-[(5-methyl-2-{[4-piperazin-1-yl-3-(trifluoromethyl)phenyl]amino}pyrimidin-4-yl)amino]benzenesulfonamide], the IC50 was 22.5 nM.
`Cc1cnc(Nc2ccc(N3CCN(C)CC3)cc2)nc1Nc1cccc(S(=O)(=O)NC2CCNCC2)c1` [3-{5-Methyl-2-[4-(4-methyl-piperazin-1-yl)-phenylamino]-pyrimidin-4-ylamino}-N-piperidin-4-yl-benzenesulfonamide] gave an IC50 of 543 nM.
`Cc1cnc(Nc2ccc(N3CCN(C)CC3)cc2)nc1Nc1cccc(S(=O)(=O)N(C)C)c1` [N,N-Dimethyl-3-{5-methyl-2-[4-(4-methyl-piperazin-1-yl)-phenylamino]-pyrimidin-4-ylamino}-benzenesulfonamide] was tested, and the IC50 was 9.5 nM.
`Cc1cnc(Nc2ccc(OCCN3CCCC3)cc2)nc1Nc1cccc2ccccc12` [N2-(4-(2-(pyrrolidin-1-yl)ethoxy)phenyl)-5-methyl-N4-(naphthalen-1-yl)pyrimidine-2,4-diamine Hydrochloride] showed an IC50 of 20 nM.
`c1ccc(Cc2ccnc(Nc3ccc(OCCN4CCCC4)cc3)n2)cc1` [N-(4-(2-(pyrrolidin-1-yl)ethoxy)phenyl)-4-benzylpyrimidin-2-amine] was tested, and the IC50 was 702 nM.
With `Cc1cnc(Nc2ccc(OCCN3CCCC3)cc2)nc1Nc1nccc2ccccc12` [N2-(4-(2-(pyrrolidin-1-yl)ethoxy)phenyl)-N4-(isoquinolin-1-yl)-5-methylpyrimidine-2,4-diamine] the IC50 was 1050 nM.
`Cc1cnc(Nc2ccc(N3CCNCC3)cc2)nc1Nc1cccc(S(=O)(=O)NC(C)(C)C)c1` [N-tert-Butyl-3-[5-methyl-2-(4-piperazin-1-yl-phenylamino)-pyrimidin-4-ylamino]-benzenesulfonamide Hydrochloride] gave an IC50 of 7.59 nM.
With `COc1cc(Nc2nc(Nc3cccc(N4CCNCC4)c3)ncc2C)ccc1Cl` [N4-(4-Chloro-3-methoxy-phenyl)-5-methyl-N2-(3-piperazin-1-yl-phenyl)-pyrimidine-2,4-diamine] the IC50 was 9.52 nM.
With `Cc1cnc(Nc2ccc(-n3ccnc3C)cc2)nc1Nc1cccc(S(=O)(=O)NC(C)(C)C)c1` [N-tert-Butyl-3-{5-methyl-2-[4-(2-methyl-imidazol-1-yl)-phenylamino]-pyrimidin-4-ylamino}-benzenesulfonamide] the IC50 was 34.3 nM.
In the case of `Cc1cnc(Nc2ccc(Cn3ccnc3C)cc2)nc1Nc1cccc(S(=O)(=O)NC(C)(C)C)c1` [N-tert-Butyl-3-{5-methyl-2-[4-(2-methyl-imidazol-1-ylmethyl)-phenylamino]-pyrimidin-4-ylamino}-benzenesulfonamide], the IC50 is reported as 21.9 nM.
Work on `Cc1cnc(Nc2ccc(N3CCN(C)CC3)cc2)nc1Nc1cccc2[nH]ccc12` [N4-(1H-indol-4-yl)-5-methyl-N2-(4-(4-methylpiperazin-1-yl)phenyl)pyrimidine-2,4-diamine Hydrochloride] yielded an IC50 of 9.53 nM.
Work on `Cc1cnc(Nc2ccc(N3CCN(C)CC3)cc2)nc1Nc1cccc(C2CCNCC2)c1` [5-Methyl-N2-[4-(4-methyl-piperazin-1-yl)-phenyl]-N4-(3-piperidin-4-yl-phenyl)-pyrimidine-2,4-diamine] yielded an IC50 of 42.5 nM.
Compound `Cc1ccc(Nc2nc(Nc3ccc(OCCN4CCCC4)cc3)ncc2C)cc1S(=O)(=O)NC(C)(C)C` [N-tert-Butyl-2-methyl-5-{5-methyl-2-[4-(2-pyrrolidin-1-yl-ethoxy)-phenylamino]-pyrimidin-4-ylamino}-benzenesulfonamide] has an IC50 of 44.4 nM.
`Cc1cnc(Nc2ccc(OCCN3CCCC3)cc2)nc1Nc1ccc2c(c1)OCO2` [N4-Benzo[1,3]dioxol-5-yl-5-methyl-N2-[4-(2-pyrrolidin-1-yl-ethoxy)-phenyl]-pyrimidine-2,4-diamine trifluoroacetate] gave an IC50 of 87.2 nM.
With `Cc1cc(C)cc(Nc2nc(Nc3ccc(OC4CCNCC4)cc3)ncc2C)c1` [5-methyl-N4-(3,5-dimethylphenyl)-N2-(4-(piperidin-4-yloxy)phenyl)pyrimidine-2,4-diamine hydrochloride] the IC50 was 37.2 nM.
Work on `Cc1cnc(Nc2ccc(N3CCN(C)CC3)cc2)nc1Nc1cccc(S(=O)(=O)N2CCCCC2C)c1` (stereo not drawn) [5-Methyl-N2-[4-(4-methyl-piperazin-1-yl)-phenyl]-N4-[3-(2-methyl-piperidine-1-sulfony)-phenyl]-pyrimidine-2,4-diamine Hydrochloride] yielded an IC50 of 33.5 nM.
`CC(=O)N1CCN(c2ccc(Nc3ncc(C)c(Nc4cccc(S(=O)(=O)NC(C)(C)C)c4)n3)cc2C(F)(F)F)CC1` [3-[(2-{[4-(4-acetylpiperazin-1-yl)-3-(trifluoromethyl)phenyl]amino}-5-methylpyrimidin-4-yl)amino]-N-tert-butylbenzenesulfonamide] was tested, and the IC50 was 35.7 nM.
With `Cc1cnc(Nc2ccc(OC3CCNCC3)cc2)nc1Nc1ccc(Cl)c(C(F)(F)F)c1` [N4-(4-Chloro-3-trifluoromethyl-phenyl)-5-methyl-N2-[4-(piperidin-4-yloxy)-phenyl]-pyrimidine-2,4-diamine] the IC50 was 11.4 nM.

Same assay, conditions: Table 5, Initial Screening Hits for JAK2
For `COc1cc(Nc2nc(Nc3cccc(OCCN4CCCC4)c3)ncc2C)c(Cl)cc1Cl` [Compound 3], the IC50 was 2040 nM.

Same assay, conditions: Table 7, SAR for the P3 region
Compound `COc1cc(Nc2nc(Nc3cccc(OCCN4CCCC4)c3)ncc2C)c(Cl)cc1Cl` [Compound 3] has an IC50 of 2040 nM.
In the case of `Cc1nc(Nc2ccccc2)nc(Nc2cccc3c2OCO3)c1C` [Compound 8], the IC50 is reported as over 10000 nM.

Same assay, conditions: Table 8, SAR of the P4 region
In the case of `Cc1cnc(Nc2ccc(N3CCN(C)CC3)cc2)nc1Nc1cc(C)c(Cl)c(C)c1` [Compound 38], the IC50 is reported as 12 nM.
